Measurements: ChEMBL document CHEMBL4138203, “Recent developments in anti-Trichomonas research: An update review” (Eur J Med Chem, 2018)
≈ marks a conversion by molar mass, not a printed value.

Key:
[1] = organism: Homo sapiens; assay: Spermicidal activity in human semen assessed as induction of sperm immobilization; format: functional
[2] = system: Trichomonas vaginalis; assay: Anti-Trichomonas activity against metronidazole-resistant Trichomonas vaginalis after 48 hrs by trypan blue exclusion assay; format: functional
[3] = system: Trichomonas vaginalis; assay: Anti-Trichomonas activity against Trichomonas vaginalis after 24 hrs by inverted microscopic analysis; format: functional
[4] = organism: Homo sapiens; assay: Spermicidal activity in human semen assessed as induction of sperm immobilization 0.0015% after 30 secs in presence of sapindus saponin
[5] = system: Trichomonas vaginalis; assay: Anti-Trichomonas activity against Trichomonas vaginalis; format: functional, organism-based
[6] = system: Trichomonas vaginalis; assay: Anti-Trichomonas activity against Trichomonas vaginalis by quantitative fluorescent method; format: functional
[7] = system: Trichomonas vaginalis; assay: Anti-Trichomonas activity against Trichomonas vaginalis JT assessed as reduction in parasite growth after 48 hrs by haemocytometry; format: functional, organism-based
[8] = system: Trichomonas vaginalis; assay: Anti-Trichomonas activity against Metronidazole-resistant Trichomonas vaginalis 085 ATCC 50143 after 48 hrs by inverted microscopic analysis; format: functional; details: 085 ATCC 50143, 48 h
[9] = system: Trichomonas vaginalis; assay: Anti-Trichomonas activity against Trichomonas vaginalis JT assessed as reduction in parasite growth after 24 hrs by haemocytometry; format: functional, organism-based
[10] = system: Trichomonas vaginalis; assay: Anti-Trichomonas activity against Trichomonas vaginalis at 100 uM; format: functional
[11] = system: Trichomonas vaginalis; assay: Anti-Trichomonas activity against metronidazole-resistant Trichomonas vaginalis ATCC 50138 assessed as inhibition of parasite growth at 5.5 mM measured at 5 to 60 mins in presence of NH4Cl by trypan blue-based assay; format: functional
[12] = system: Trichomonas vaginalis; assay: Anti-Trichomonas activity against metronidazole-susceptible Trichomonas vaginalis ATCC 30001 assessed as inhibition of parasite growth at 5.5 mM measured at 5 to 60 mins in presence of NH4Cl by trypan blue-based assay; format: functional
[13] = system: Trichomonas vaginalis; assay: Anti-Trichomonas activity against metronidazole-resistant Trichomonas vaginalis JT after 48 hrs by hemocytometry; format: functional, organism-based
[14] = system: Trichomonas vaginalis; assay: Anti-Trichomonas activity against Metronidazole-resistant Trichomonas vaginalis isolate 085 ATCC 50143 infected in Swiss Webster mouse at 25 mg/kg, po dosed for 4 days measured at 24 hrs post last dose by microscopic analysis; format: functional
[15] = system: Trichomonas vaginalis; assay: Potency index, ratio of Metronidazole MIC to compound MIC for anti-trichomonas activity against Metronidazole-resistant Trichomonas vaginalis 085 ATCC 50143; format: functional
[16] = system: Trichomonas vaginalis; assay: Anti-Trichomonas activity against Trichomonas vaginalis isolate 2 at 250 uM after 48 hrs by microscopic analysis; format: functional; details: isolate 2, 48 h
[17] = system: Trichomonas vaginalis; assay: Anti-Trichomonas activity against Trichomonas vaginalis isolate 1 at 250 uM after 48 hrs by microscopic analysis; format: functional; details: isolate 1, 48 h
[18] = system: Trichomonas vaginalis; assay: Anti-Trichomonas activity against metronidazole-susceptible Trichomonas vaginalis ATCC 30236 after 24 hrs by hemocytometry; format: functional, organism-based; details: ATCC 30236, 24 h
[19] = system: Trichomonas vaginalis; assay: Anti-Trichomonas activity against metronidazole-resistant Trichomonas vaginalis IR78 ATCC 50138 cultured in TYI-S-33 media assessed as reduction in parasite growth after 30 mins by haemocytometry; format: functional, organism-based; details: IR78 ATCC 50138, 0.5 h
[20] = system: Trichomonas vaginalis; assay: Anti-Trichomonas activity against metronidazole-resistant Trichomonas vaginalis IR78 ATCC 50138 cultured in PBS/BSA media assessed as reduction in parasite growth after 30 mins by haemocytometry; format: functional, organism-based; details: IR78 ATCC 50138, 0.5 h
[21] = system: Trichomonas vaginalis; assay: Anti-Trichomonas activity against metronidazole-susceptible Trichomonas vaginalis after 48 hrs by trypan blue exclusion assay; format: functional
[22] = Trichomonas vaginalis, read-out: MIC

FC(F)(F)c1ccc(OC(CCN2CCCC2)c2ccccc2)cc1 (centres undefined)
MEC [1]: 1%
MIC [2]: 12.5 to 50 µg/mL

COC(=O)C1=CC[C@@H](O[C@@H]2O[C@H](CO)[C@@H](O)[C@H](O)[C@H]2O)C(CCC=O)[C@@H]1CC(=O)OCCc1ccc(O)c(O)c1 (some centres undefined)
MIC [3]: 12.5 µM (≈ 7.11 µg/mL)

O=C(SCC(CN1CCCC1)SSC(CSC(=O)N1CCCCC1)CN1CCCC1)N1CCCCC1 (centres undefined)
Activity [4]: 100%

CCCCCCCCCCCCCCCCCCCCCCCC
MIC [5, 22]: 500 to 1000 µg/mL (≈ 1480 to 2950 µM)

C[C@H]1[C@H](C)CC[C@]2(C(=O)O[C@@H]3O[C@H](CO)[C@@H](O)[C@H](O)[C@H]3O)CC[C@]3(C)C(=CC[C@@H]4[C@@]5(C)CC[C@H](O[C@@H]6O[C@H](CO[C@@H]7O[C@@H](C)[C@H](O)[C@@H](O)[C@H]7O[C@@H]7O[C@H](CO)[C@@H](O)[C@H](O)[C@H]7O)[C@@H](O)[C@@H]6O)C(C)(C)[C@@H]5CC[C@]43C)[C@H]12
MIC [6]: 0.05%

Oc1cc(O)c2c(c1)O[C@H](c1ccc(O)c(O)c1)[C@H](O[C@]1(c3ccc(O)c(O)c3)Oc3cc(O)cc(O)c3[C@H](O)[C@H]1O)C2
MIC [5, 22]: > 2000 µg/mL

Cc1ncc([N+](=O)[O-])n1CCO [METRONIDAZOLE]
MEC [1]: 1%
MIC [2]: 1 to 111 µM

CCCCCCCCCCCCCCCCOP(=O)([O-])OCC[N+](C)(C)C [MILTEFOSINE]
IC50 [7]: 20 µM
MIC [8]: 145 µM (≈ 59.1 µg/mL)
IC50 [9]: 14.5 µM

Oc1cc(O)c2c(c1)O[C@H](c1cc(O)c(O)c(O)c1)[C@@H](O)[C@@H]2c1c(O)cc(O)c2c1O[C@H](c1cc(O)c(O)c(O)c1)[C@@H](O)C2
MIC [5, 22]: > 2000 µg/mL

C[C@H]1CC[C@]2(NC1)O[C@H]1C[C@H]3[C@@H]4CC[C@H]5C[C@@H](O[C@@H]6O[C@H](CO)[C@H](O[C@@H]7O[C@H](CO)[C@@H](O)[C@H](O[C@@H]8OC[C@@H](O)[C@H](O)[C@H]8O)[C@H]7O[C@@H]7O[C@H](CO)[C@@H](O)[C@H](O)[C@H]7O)[C@H](O)[C@H]6O)CC[C@]5(C)[C@H]4CC[C@]3(C)[C@H]1[C@@H]2C [TOMATINE]
inhibition at 100 µM [10]: 103%

O=S(=O)(O)CCNCl
inhibition at 5500 µM [11]: 100%
inhibition at 5500 µM [12]: 100%

C[C@@H](CCC1(O)OC2CC3C4C[C@H](O[C@H]5O[C@@H](C)[C@H](O)[C@@H](O[C@H]6O[C@@H](C)[C@H](O)[C@@H](O)[C@@H]6O)[C@@H]5O)[C@H]5CC(O)CC[C@]5(C)C4CC[C@]3(C)C2[C@@H]1C)CO[C@@H]1O[C@H](CO)[C@@H](O)[C@H](O)[C@H]1O (some centres undefined)
MIC [3]: 6.25 to 50 µM (≈ 5.66 to 45.3 µg/mL)

C=C(CO[C@@H]1O[C@H](CO)[C@@H](O)[C@H](O)[C@H]1O)[C@@H]1Cc2c(ccc3c2O[C@H]2COc4cc(OC)c(OC)cc4[C@H]2[C@@H]3O)O1
MIC [3]: 6.25 µM (≈ 3.59 µg/mL)

OC1(c2ccc(-c3ccccc3)cc2)CN2CCC1CC2 (centres undefined)
IC50 [13]: 46 µM

COc1cc(/C=C/C(=O)CC(=O)/C=C/c2ccc(O)c(OC)c2)ccc1O [CURCUMIN]
EC50 ([5]; Trichomonas vaginalis): 100 µg/mL (≈ 271 µM)

OC[C@H]1O[C@@H](Oc2ccc(O)cc2)[C@H](O)[C@@H](O)[C@@H]1O [ARBUTIN]
MIC [5, 22]: 500 µg/mL (≈ 1840 µM)

O=C(/C=C/c1ccc(O)c(O)c1)O[C@H](Cc1ccc(O)c(O)c1)C(=O)O [ROSMARINIC ACID]
MIC [5, 22]: 20 µg/mL (≈ 55.5 µM)

c1cc(CCCc2ccc(-c3nc4ccccc4[nH]3)cc2)cc(-c2nc3ccccc3[nH]2)c1
Activity [14]: 100%
Ratio [15]: 5.5
MIC [8]: 26 µM (≈ 11.1 µg/mL)

CCCCCCCCCCCC(=O)O[C@H]1C=C2CCN3Cc4cc5c(cc4[C@H]([C@@H]1O)[C@@H]23)OCO5
inhibition at 250 µM [16]: 100%
inhibition at 250 µM [17]: 100%

CC(C)C(=O)C1=C(O)C(Cc2c(O)c3c(c(C(=O)C(C)C)c2O)OC(C)(C)C=C3)=C(O)C(C)(C)C1=O
IC50 [18]: 122 µM

COc1c2c(cc(O)c1C(=O)C(C)C)OC(C)(C)C=C2
IC50 [18]: 834 µM

CCCCCCCCN=c1ccn(CCCCCCCCCCn2ccc(=NCCCCCCCC)cc2)cc1.Cl.Cl [OCTENIDINE HYDROCHLORIDE]
EC50 [19]: 0.68 to 2.11 µg/mL
EC50 [20]: 0.68 to 2.11 µg/mL

CC1(C)CC[C@]2(C(=O)O)[C@H](O)C[C@]3(C)C(=CC[C@@H]4[C@@]5(C)CC[C@H](O[C@@H]6O[C@H](C(=O)O)[C@@H](O)[C@H](O)[C@H]6O)[C@@](C)(C=O)[C@@H]5CC[C@]43C)[C@@H]2C1
MIC [5]: 0.025%

C1CCNCC1.S=C(S)N1CCCC1 [listing 1 of 2 here]
MEC [1]: 61.5 mg/L

C1CCNC1.S=C(S)N1CCCC1 [listing 1 of 2 here]
MIC [2]: 13.5 µM
MIC [21]: 5.25 µM

COC(=O)C1=CO[C@H](O[C@@H]2O[C@H](CO)[C@@H](O)[C@H](O)[C@H]2O)[C@@]2(C)[C@@H](C)OC(=O)C(C)(C)[C@@H](C)OC(=O)C[C@@]12C
MIC [3]: 6.25 µM (≈ 3.42 µg/mL)

C[C@@H](CCC1(O)OC2CC3C4C[C@H](O[C@H]5O[C@@H](C)[C@H](O)[C@@H](O[C@H]6O[C@@H](C)[C@H](O)[C@@H](O)[C@@H]6O)[C@@H]5O)[C@H]5CC(=O)CC[C@]5(C)C4CC[C@]3(C)C2[C@@H]1C)CO[C@@H]1O[C@H](CO)[C@@H](O)[C@H](O)[C@H]1O (some centres undefined)
MIC [3]: 6.25 to 50 µM (≈ 5.64 to 45.2 µg/mL)

COC(=O)C1=CO[C@@H](O[C@@H]2O[C@H](CO)[C@@H](O)[C@H](O)[C@H]2O)[C@H]2[C@@H]1C=C[C@@]21C=C([C@H](C)OC(=O)/C=C/c2ccc(O)cc2)C(=O)O1
MIC [3]: 12.5 µM (≈ 7.71 µg/mL)

COc1cc2c(c(O)c1C(=O)C(C)C)C=CC(C)(C)O2
IC50 [18]: 1230 µM

CCCCCCCCCCCCCCCC(=O)O [PALMITIC ACID]
MIC [5, 22]: 500 to 1000 µg/mL (≈ 1950 to 3900 µM)

C1CCNCC1.S=C(S)N1CCCC1 [listing 2 of 2 here]
MIC [2]: 7.8 µg/mL
MIC [21]: 1.56 µg/mL

C1CCNC1.S=C(S)N1CCCC1 [listing 2 of 2 here]
MEC [1]: 145 µM

COc1cc2c(c(OC)c1C(=O)C(C)C)C=CC(C)(C)O2
IC50 [18]: 226 µM

CN(CCC(Oc1ccc(C(F)(F)F)cc1)c1ccccc1)C(=S)SCN1CCCC1 (centres undefined)
MEC [1]: 0.05%
MIC [2]: 14 µg/mL

CC1(C)CC[C@]2(C(=O)O)CC[C@]3(C)C(=CC[C@@H]4[C@@]5(C)CC[C@H](O[C@@H]6[C@@H](O)[C@H](O[C@@H]7O[C@H](CO)[C@@H](O)[C@H](O)[C@H]7O)O[C@H](CO)[C@H]6O)C(C)(C)[C@@H]5CC[C@]43C)[C@@H]2C1
MIC [5]: 0.25%

CC(C)=CCC/C(C)=C/CO [GERANIOL]
IC50 ([5]; Trichomonas vaginalis): 171 µg/mL (≈ 1110 µM)

N#CCCCN1CCN(C(=S)SSC(=S)N2CCN(CCCC#N)CC2)CC1
MIC [2]: 3.12 to 50 µg/mL
